This series relates to artificial myocardial structure (cardiac organoid). Kind of series: Contractile force-based cardiac toxicity assessment of drug-treated artificial myocardial structure. It is filed as cell-based. Conditions: FIG. 15. The source says: Furthermore, after additionally treating an artificial myocardial structure prepared by coculturing gelatin oil capsules and cardiomyocytes with various drugs, contractile forces of the drug-treated artificial myocardial structure were checked.

Each structure is given as a SMILES string.

For the molecule `CC(C)NCC(O)c1ccc(O)c(O)c1` (stereo not drawn) [Isopreterenol], under “10 nM”, the beat rates entry was “accelerated” and the contractile forces result is listed as “changed strongly”.

For `COc1ccc(CCN(C)CCCC(C#N)(c2ccc(OC)c(OC)c2)C(C)C)cc1OC` (stereo not drawn) [verapamil], the beat rates entry (125 nM) was “slow down and become somewhat irregular”.

Source of the values: patent US20210395676A1, “CARRIER FOR CELL CULTURE COMPRISING MICROCAPSULES CONTAINING NATURAL OIL” (Korea Research Institute of Chemical Technology, priority 2018, published 2021).
